In patent US5534522A, “(R)-(Z)-1-azabicyclo [2.2.1] heptan-3-one,O-[3-(3-methoxyphenyl)-2-propynyl] oxime maleate as a pharmaceutical agent” (Warner-Lambert Company, priority 1995, dated 1996):
Where a name gives a salt, the structure may show the parent alone. Read-outs that look alike come from different tables or passages of the source.

Key:
[1] = Evaluation of acid addition salts (ease of formation and crystallinity); assay type: physicochemical; conditions: for Overall Salt Rating: based on ease of formation and crystallinity, salt of 1a (free base treated with acid); for isomer formation on recrystallization (words): EtOAc in Table III
Procedure: Many counter-ions were evaluated for salt-forming properties. The data presented in Table III answer the following questions: (1) did a solid salt precipitate from ether when free base 1a was treated with each acid?; (2) following collection of the salt by either filtration or evaporation of the ether, what solvents were used to crystallize the salt, and was a crystalline salt obtained from each solvent?; (3) melting point information; and (4) overall rating of each salt, based on considerations of ease of formation and crystallinity.

[2] = Stability of crystalline salts of 1a under accelerated stability conditions; assay type: physicochemical
Excerpt: Maleate and benzoate salts were recrystallized from ethyl acetate and t-butyl methyl ether, respectively. Xenon exposure with the Atlas SunChex set for 0.4±0.1 watts/m^2. Fluorescent exposure with 1000-±100-ft candles.

[3] = test system: rat cerebral cortex muscarinic receptors; assay: Muscarinic receptor binding, CMD (cis-methyldioxolane) agonist radioligand; conditions: for IC50: Table I
[4] = test system: m1-subtype muscarinic receptors; conditions: cited from earlier work
[5] = Refrigerated storage stability of free base; assay type: physicochemical; conditions: refrigerated at -4° C., up to several days
[6] = target: rat cerebral cortex muscarinic receptors; conditions: Table I; read-out: QNB Binding IC50
[7] = Hygroscopicity of salts of Compound 1a; assay type: physicochemical; conditions: for Hygroscopicity (% wt increase): RT, 81% RH for 16 days, crimped DSC pans; for moisture uptake / hygroscopicity in words: salts of Table IV
[8] = Aqueous solubility of crystalline salts of 1a; assay type: physicochemical; conditions: for solubility: water, room temp.
[9] = test system: hippocampally deficient mice; assay type: in vivo, mouse
Excerpt: This test measures the ability of a compound to decrease the amount of time needed by the mice to find a hidden platform in the water pool.
The graph represents two sets of experiments, each one with its own control group.

[10] = test system: rat cerebral cortex muscarinic receptors; conditions: earlier publications, cited from earlier work
[11] = 1a versus isomer 1b, Tables II and III of Jaen reference
[12] = Xenon, 26 hours, 0.4±0.1 watts/m^2

Structure (SMILES): COc1cccc(C#CCO/N=C2\CN3CC[C@@H]2C3)c1 [Tartrate (D)-(-) (0.5 equi)]
- Overall Salt Rating [1]: Low

Structure (SMILES): COc1cccc(C#CCO/N=C2\CN3CC[C@@H]2C3)c1 [Fumarate (0.5 epui)]
- Overall Salt Rating [1]: Medium

Structure (SMILES): COc1cccc(C#CCO/N=C2\CN3CC[C@@H]2C3)c1 [ethyl acetate recrystallized maleate salt]
- stability compared with ether-precipitated product ([2]; ethyl acetate recrystallized versus ether-precipitated): more stable

Structure (SMILES): COc1cccc(C#CCO/N=C2\CN3CC[C@@H]2C3)c1 [Compound 1a, [R-(Z)]-1-azabicyclo [2.2.1]heptan-3-one, O-[3-(3-methoxyphenyl)-2-propynyl]oxime]
- potency and efficacy as a muscarinic agonist (ratio of QNB to CMD binding) ([3]; 1a versus mixture of 1c/1d): more potent and more efficacious as a muscarinic agonist
- IC50 [3]: 25 nM
- m1 potency [4, 11]: greater m1 potency than isomer 1b
- m1 receptor subtype selectivity [4, 11]: greater m1 receptor subtype selectivity
- decomposition or isomerization to 1c on storage [5]: without noticeable decomposition or isomerization to produce 1c
- IC50 [6]: 5.3 µM

Structure (SMILES): COc1cccc(C#CCO/N=C2\CN3CC[C@@H]2C3)c1 [Tartrate (L)-(+) (0.5 equi)]
- Overall Salt Rating [1]: Low

Structure (SMILES): COc1cccc(C#CCO/N=C2\CN3CC[C@@H]2C3)c1 [Hydrochloride]
- Hygroscopicity (% wt increase) [7]: 27.77 ± 0.40 % wt
- moisture uptake / hygroscopicity in words ([7]; listed as HCl salt): took up water most rapidly and to the greatest extent
- moisture uptake / hygroscopicity in words ([7]; listed as hydrochloride salt): extremely hygroscopic
- Overall Salt Rating [1]: High
- isomer formation on recrystallization (words) [1]: E-Isomer Formation
- isomer formation on recrystallization (words) ([1]; listed as hydrochloride): difficult to recrystallize without converting 1a to 1c

Structure (SMILES): COc1cccc(C#CCO/N=C2\CN3CC[C@H]2C3)c1 [Compound 1b]
- muscarinic agonist activity ([4]; isomer 1b, could be due to small amounts of 1a): small amount of activity

Structure (SMILES): COc1cccc(C#CCO/N=C2\CN3CC[C@@H]2C3)c1 [Malate]
- Overall Salt Rating [1]: Low

Structure (SMILES): COc1cccc(C#CCO/N=C2\CN3CC[C@@H]2C3)c1 [Succinate]
- Overall Salt Rating [1]: Low

Structure (SMILES): COc1cccc(C#CCO/N=C2\CN3CC[C@@H]2C3)c1 [Tartrate (L)-(+) (1 equi)]
- Overall Salt Rating [1]: Low

Structure (SMILES): COc1cccc(C#CCO/N=C2\CN3CC[C@@H]2C3)c1 [Fumarate (1 equi)]
- Overall Salt Rating [1]: Low

Structure (SMILES): COc1cccc(C#CCO/N=C2/CN3CCC2C3)c1 (centres unmarked) [(1c + 1d)]
- IC50 [3]: 150 nM
- IC50 [6]: 14.8 µM

Structure (SMILES): COc1cccc(C#CCO/N=C2\CN3CC[C@@H]2C3)c1 [L(+)-Lactate]
- Overall Salt Rating [1]: Low

Structure (SMILES): COc1cccc(C#CCO/N=C2\CN3CC[C@@H]2C3)c1 [Maleate, (R)-(Z)-1-azabicyclo[2.2.1]heptan-3-one,O-[3-(3-methoxyphenyl)-2-propynyl]oxime, (Z)-butenedioic acid, [1:1 salt]]
- Hygroscopicity (% wt increase) [7]: 0.32 ± 0.02 % wt
- moisture uptake / hygroscopicity in words [7]: the least
- solubility in water relative to 1a benzoate ([8]; 1a maleate versus 1a benzoate): about 15 times
- solubility [8]: 89 mg/mL
- latency improvement ([9]; 1 mg/kg, separate set of experiments (maleate)): about 20 seconds
- biological activity compared to other salts ([9]; water maze): no loss of biological activity
- Stability to light: presence of 1c ([2]; Fluorescence, 5.5 months, 1000-±100-ft candles): .largecircle.
- Stability to light: presence of 1c [2, 12]: .largecircle.

Structure (SMILES): COc1cccc(C#CCO/N=C2\CN3CC[C@@H]2C3)c1 [Hydrobromide]
- Overall Salt Rating [1]: Low
- hygroscopicity of precipitated salt ([1]; precipitation from Et2O): very hygroscopic

Structure (SMILES): COc1cccc(C#CCO/N=C2\CN3CC[C@@H]2C3)c1 [ether-precipitated product]
- physical state under accelerated stability condition ([2]; 2 weeks, 40° C./75% RH): deliquescent

Structure (SMILES): Nc1c2c(nc3ccccc13)CCCC2 [tacrine, reference compound]
- latency improvement, tacrine control group ([9]; tacrine in the maleate set of experiments): 24 s
- improvement of time to find the platform, positive control ([9]; tacrine in the oxalate set of experiments): ~27 s

Structure (SMILES): COc1cccc(C#CCON=C2CN3CCC2C3)c1 (centres unmarked) [Compound 1]
- affinity to rat cerebral cortex muscarinic receptors ([10]; rat cerebral cortex): high affinity
- ability to displace agonist radioligand (cis-methyldioxolane) at lower concentrations than those required to displace antagonist radioligand (quinuclidinyl benzilate) ([10]; ratio QNB/CMD): 246 times
- selective stimulation of m1-subtype muscarinic receptors ([4]; versus other non-m1 muscarinic receptors, earlier publications): selectively stimulate m1-subtype muscarinic receptors without significant stimulation of other non-m1 muscarinic receptors

Structure (SMILES): COc1cccc(C#CCO/N=C2\CN3CC[C@@H]2C3)c1 [Benzene Sulfonae Sulphonate]
- Overall Salt Rating [1]: Low

Structure (SMILES): COc1cccc(C#CCO/N=C2\CN3CC[C@@H]2C3)c1 [Oxalate]
- Hygroscopicity (% wt increase) [7]: 6.38 ± 1.40 % wt
- moisture uptake / hygroscopicity in words ([7]; listed as oxalate salt): less hygroscopic than the hydrochloride
- reduction of time required to find the platform ([9]; 1 mg/kg, first set of experiments (oxalate)): about 18 seconds

Structure (SMILES): COc1cccc(C#CCO/N=C2\CN3CC[C@@H]2C3)c1 [Benzoate]
- Overall Salt Rating [1]: High
- solubility [8]: 6 mg/mL
- stability in words ([2]; 25° C./60% RH and 30° C./60% RH): stable
- Stability: presence of 1c ([2]; 30° C./60% RH, 2 weeks): .largecircle.
- Stability to light: presence of 1c [2, 12]: E (presence of 2%-4% 1c)

Structure (SMILES): CCCC(=O)O.COc1cccc(C#CCON=C2CN3CCC2C3)c1 (centres unmarked)
- Overall Salt Rating [1]: Low

Structure (SMILES): COc1cccc(C#CCO/N=C2\CN3CC[C@@H]2C3)c1 [Acetate]
- Overall Salt Rating [1]: Low

Structure (SMILES): COc1cccc(C#CCO/N=C2\CN3CC[C@@H]2C3)c1 [Tartrate (D)-(-) (1 equi)]
- Overall Salt Rating [1]: Low

Structure (SMILES): COc1cccc(C#CCO/N=C2\CN3CC[C@@H]2C3)c1 [Stearate]
- Overall Salt Rating [1]: Low
